Data on ten compounds can be found in ChEMBL document CHEMBL4706661, “Synthesis and vasorelaxant evaluation of novel 7-methoxyl-2,3-disubstituted-quinoxaline derivatives” (2021).

Assay [1] deals with Thoracic aorta. Put plainly: Vasorelaxant activity in C57 mouse thoracic aortic rings containing endothelium assessed as reduction in phenylephrine-induced contractions at 3 to 300 uM measured for 16 mins by myograph assay. In kind it is functional, tissue-based. The following applies: dose 3-300 µM.
In assay [2] the test system is Thoracic aorta. The experiment in a line: Vasorelaxant activity in C57 mouse thoracic aortic rings containing endothelium assessed as reduction in phenylephrine-induced contractions at 3 to 300 uM pretreated with nitric oxide synthase inhibitor, L-NAME and measured for 16 mins by myograph method. In kind it is functional, tissue-based. The following applies: dose 3-300 µM.

The subject of assay [3] is Thoracic aorta. Put plainly: Vasorelaxant activity in C57 mouse thoracic aortic rings assessed as reduction in phenylephrine-induced contractions at 3 to 300 uM measured for 16 mins in absence of endothelium by myograph method. In kind it is functional, tissue-based. Particulars: dose 3-300 µM.
Assay [4] relates to Thoracic aorta. Put plainly: Vasorelaxant activity in C57 mouse thoracic aortic rings containing endothelium assessed as reduction in phenylephrine-induced contractions at 300 uM after 40 mins by myograph method. In kind it is functional.
In assay [5] the test system is Thoracic aorta. The experiment in a line: Vasorelaxant activity in C57 mouse thoracic aortic rings containing endothelium assessed as reduction in high extracellular K+-induced contractions measured for 16 mins by myograph assay. Particulars: dose 3-300 µM. In kind it is functional, tissue-based.
Assay [6] relates to Thoracic aorta. Put plainly: Vasorelaxant activity in C57 mouse thoracic aortic rings assessed as reduction in high extracellular K+-induced contractions at 3 to 300 uM measured for 16 mins in absence of endothelium by myograph assay. Particulars: dose 3-300 µM. In kind it is functional, tissue-based.
The subject of assay [7] is Thoracic aorta. The experiment in a line: Vasorelaxant activity in C57 mouse thoracic aortic rings containing endothelium assessed as reduction in high extracellular K+-induced contractions at 3 to 300 uM pretreated with nitric oxide synthase inhibitor, L-NAME and measured for 16 mins by myograph method. In kind it is functional, tissue-based. The following applies: dose 3-300 µM.

The source made the active and inactive calls. The calls are words filed in the database; no cut-off is given here.

For the compound `COc1ccc2nc(N3CCCC3)c(N3CCN(Cc4ccccc4)CC3)nc2c1`, the outcome in the assay with Thoracic aorta [1] was inactive.
`COC(=O)C1CCN(c2nc3cc(OC)ccc3nc2N2CCCC2)CC1`: the Activity entry in the assay on Thoracic aorta [1] and with Thoracic aorta [5] was “Dose-dependent effect” in each case. For the same compound, the outcome in the assay with Thoracic aorta [2], in the assay with Thoracic aorta [3], with Thoracic aorta [6] and in the assay with Thoracic aorta [7] was Active. For the same compound, the inhibition (in general, the share of the control response that was lost under treatment) at 300 µM in the assay with Thoracic aorta [4] was found to be 72.7%.
Consider `COc1ccc2nc(Oc3ccc(-c4ccccc4)cc3)c(N3CCCC3)nc2c1`, for which the outcome with Thoracic aorta [1] was inactive.
In the case of `COc1ccc2nc(N3CCCC3)c(N3CCN(c4ccccc4)CC3)nc2c1`, the result in the assay on Thoracic aorta [1] was inactive.
For the compound `COc1ccc2nc(N3CCCC3)c(N3CCOCC3)nc2c1`, the outcome in the assay on Thoracic aorta [1] was inactive.
For the compound `COc1ccc2nc(NC#N)c(N3CCN(Cc4ccccc4)CC3)nc2c1`, in the assay on Thoracic aorta [1], the outcome was inactive.
Consider `CCN1CCN(c2nc3cc(OC)ccc3nc2N2CCCC2)CC1`, for which the Activity result in the assay with Thoracic aorta [1] and with Thoracic aorta [5] was “Dose-dependent effect” in each case. Also, the result in the assay with Thoracic aorta [2], in the assay on Thoracic aorta [3], in the assay with Thoracic aorta [6] and in the assay on Thoracic aorta [7] was Active. For the same compound, in the assay on Thoracic aorta [4], the inhibition at 300 µM was 50%.
With `COc1ccc2nc(Oc3ccc(-c4ccc(C#N)cc4)cc3)c(N3CCN(c4ccccc4)CC3)nc2c1`, the result in the assay on Thoracic aorta [1] and with Thoracic aorta [6] was Active. Further, the Activity result in the assay on Thoracic aorta [5] was “Dose-dependent effect”.
Regarding `COc1ccc2nc(N3CCCC3)c(N3CCN(C)CC3)nc2c1`, the Activity entry with Thoracic aorta [1] and in the assay with Thoracic aorta [5] was “Dose-dependent effect” in each case. In addition, the result with Thoracic aorta [2], in the assay on Thoracic aorta [3], in the assay on Thoracic aorta [6] and in the assay with Thoracic aorta [7] was Active. Also, in the assay on Thoracic aorta [4], the inhibition at 300 µM came out at 50%.
Consider `COc1ccc2nc(Oc3ccc(-c4ccc(C#N)cc4)cc3)c(N3CCN(C)CC3)nc2c1`, for which the outcome with Thoracic aorta [1] and with Thoracic aorta [6] was Active. For the same compound, the Activity entry in the assay with Thoracic aorta [5] is “Dose-dependent effect”.
